Assay results: patent US11352394B2, “Cyclic cell penetrating peptides comprising beta-hairpin motifs and methods of making and using thereof” (Ohio State Innovation Foundation, priority 2016, dated 2022)
“Also recorded” adds a separate entry of the source. Blank lines part the entries; values can stand above or below the molecule they belong to. Square brackets hold non-standard residues; d marks the D form. Peptide text beside a SMILES is read from it. pY = N[C@@H](Cc1ccc(OP(=O)(O)O)cc1)C(=O)O; 2Nal = N[C@@H](Cc1ccc2ccccc2c1)C(=O)O

Key:
Keap1-Nrf2 interaction = Keap1-Nrf2 interaction (Homo sapiens, UniProt Q14145); assay: Fluorescence anisotropy-based competition assay, inhibition of Keap1-Nrf2 peptide interaction; format: binding; settings: for IC50: FA competition with fluorescently labeled Nrf2 peptide and Keap1; for Decrease of affinity for Keap1 / inhibition potency: Asn-Ala analogues vs Asp-Pro parents (BH13, BH15, BH17), BH19: truncation of cargo to 6-aa
Protocol: The percentage of inhibition was calculated from the fluorescence anisotropy decrease by using equation % Inhibition=(FAmax−FAobs)/(FAmax−FAmin)×100% and plotted against the inhibitor concentration.

[1] = system: HO-1 protein (Keap1-Nrf2-ARE pathway), HEK293 cells; assay: Anti-HO1 immunoblot of HO-1 protein level in HEK293 cells; format: cell-based, human
Protocol: FIG. 5 is an image from a Western blot analysis of HO-1 protein levels in HEK293 cells untreated or after treatment with SFN (10 μM) or a cyclic β-hairpin peptide (40 μM).
FIG. 8 is a western blot showing the effect of peptide BH15 on the protein level of HO-1, a protein downstream of the Keap1-Nrf2-ARE pathway. SFN, a small-molecule positive control; blank, no inhibitor.
The cellular activity of Keap1-Nrf2 inhibitors BH13-18 was assessed by examining their effects on the expression levels of HO-1 protein, by anti-HO1 immunoblot analysis. HO-1 is an antioxidant enzyme under the transcriptional control of Nrf2 binding to the ARE, and disruption of the Keap1-Nrf2 interaction is expected to increase the protein level of HO-1.
(§1) BH15 enters human cells, binds and inhibits the function of Keap1 (which promotes the ubiquitination and degradation of Nrf2), resulting in increased intracellular levels of Nrf2, a transcription factor. […] This in turn results in the increased levels of HO-1, a protein whose expression is controlled by Nrf2.

[2] = system: Nrf2 protein level, HEK293 cells; assay: Western blot of Nrf2 protein level in cytoplasm and nucleus of HEK293 cells; format: cell-based, human; settings: varying doses
Source text: The cellular activity of Keap1-Nrf2 Inhibitor BH15 was characterized, and it was observed that BH15 is biologically active in cell-based assays. Varying doses of BH15 were provided to HEK293 cells in culture. After a period of time, the cells were lysed, and cytosolic fractions were separated from nuclear fractions.
as §1

Grb2 SH2 domain = Grb2 SH2 domain (Homo sapiens, UniProt P62993); assay: FP-based competition assay with FAM-labeled reporter ligand for Grb2 SH2 domain; format: binding
Protocol: FIG. 10(a) is the structure of a Grb2 SH2 ligand. […] This ligand was used as reporter ligand in FA/FP-based competition assays to determine the binding affinities of new Grb2 SH2 domain ligands.
(§2) The binding affinity of BH23 (unlabeled) for the Grb2 SH2 domain was then determined by examining its ability to compete with the FAM-labeled ligand for binding to the Grb2 SH2 domain by fluorescence polarization (FP). […] Next, BH23 was labeled with NF at the Asn side chain through a miniPEG-Lys linker and its cytosolic entry efficiency was quantitated by treating HeLa cells with 5 μM of the labeled peptide for 2 h before flow cytometry analysis. […] BH23 was also similarly labeled at the Asn side chain with FAM and its entry into HeLa cells was examined by live-cell confocal microscopy. […] Two control peptides (BH24 and BH25) were also prepared for cellular assays. BH24 and BH25 are structurally similar to BH23, except that BH24 contained a Tyr instead of the pY residue (FIG. 11), whereas in BH25 the two hydrophobic residues critical for cellular uptake (Nal-arg) were replaced with Ala-ala (FIG. 12).

[3] = system: Grb2/Ras signaling pathway, MDA-MB-468 breast cancer cells; assay: Western blot of MEK and ERK1/2 phosphorylation in EGF-stimulated MDA-MB-468 cells; format: cell-based; settings: peptide 2 h, EGF 50 ng/mL 10 min
Protocol: FIG. 13 provides western blots depicting the effect of peptides BH23, BH24, and BH25 on the Grb2/Ras signaling pathway. MDA-MB-468 cells were treated with the indicated concentrations of peptide BH23 (a) or control peptides BH24 and BH25 (b) for 2 h and stimulated with EGF (50 ng/mL) for 10 min. The cells were then lysed and the cell lysates were separated on SDS-PAGE and blotted with antibodies specific for phosphorylated and total kinases in the Ras signaling pathway. Glyceraldehyde 3-phosphate dehydrogenase (GAPDH) was used as the loading control. […] Inhibition of ERK1/2 phosphorylation was less dramatic, as expected from its further downstream position on the Grb2/Ras signaling pathway.
FIG. 14(a) is the structure of BH26. FIG. 14(b) provides western blots showing the effect of peptides BH23 and BH26 on the Grb2/Ras signaling pathway. MDA-MB-468 cells were treated with the indicated concentrations of BH23 or BH26 for 2 h and stimulated with EGF (50 ng/mL) for 10 min. The cells were then lysed and the cell lysates were separated on SDS-PAGE and blotted with antibodies specific for phosphorylated and total kinases in the Ras signaling pathway.
BH23 and BH24 were tested for their ability to inhibit the Grb2/Ras signaling pathways, by monitoring the phosphorylation of MEK and ERK1/2 kinases downstream of Ras.

HeLa cells = assay: Cellular (cytosolic) uptake of NF-labeled peptides by flow cytometry (MFI); format: cell-based; settings: HeLa cells, flow cytometry
Protocol: HeLa cells were treated with 5 μM peptide for 2 h, and their cell uptake efficiencies were determined by flow cytometry analysis. The mean fluorescence intensity (MFI) values derived from cytometry analyses reflect the amounts of peptides inside the cytosol and nucleus, whereas any NF-labeled peptide entrapped inside the acidic endosomes are invisible under the experimental conditions (Id.; Qian, Z et al. Chem. Commun. 2015, 51, 2162-2165).
as §2
BHT1 and BHT2 were labeled with naphthofluorescein (NF) and their cytosolic uptake into HeLa cells was determined by flow cytometry (Table 10).
Additional cell penetrating compounds were prepared and tested for cytosolic delivery. In these compounds there was no beta-hairpin turn creating moiety.

mammalian cells = settings: Qian et al. 2013; cited from earlier work
[4] = LaRochelle et al. 2015; cited from earlier work

Sequence of Grb2 SH2 domain (P62993 60-152 limits assumed): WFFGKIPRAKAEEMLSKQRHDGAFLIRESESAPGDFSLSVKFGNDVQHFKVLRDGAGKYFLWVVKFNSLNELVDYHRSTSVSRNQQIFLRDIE
Sequence of Keap1-Nrf2 interaction (Q14145 321-609 limits assumed): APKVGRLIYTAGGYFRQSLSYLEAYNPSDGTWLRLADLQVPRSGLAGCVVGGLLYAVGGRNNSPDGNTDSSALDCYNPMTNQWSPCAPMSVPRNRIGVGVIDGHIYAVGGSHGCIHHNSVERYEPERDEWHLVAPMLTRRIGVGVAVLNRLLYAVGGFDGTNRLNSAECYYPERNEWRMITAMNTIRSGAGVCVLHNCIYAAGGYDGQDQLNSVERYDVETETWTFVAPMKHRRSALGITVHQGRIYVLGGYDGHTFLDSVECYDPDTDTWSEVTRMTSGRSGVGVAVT

Molecule: CC(C)C[C@@H]1NC(=O)[C@H](CCC(N)=O)NC(=O)[C@H](Cc2ccccc2)NC(=O)[C@H](CCCNC(=N)N)NC(=O)[C@H](CCCNC(=N)N)NC(=O)[C@@H]2CCCN2C(=O)[C@H]2CCCN2C(=O)[C@@H](CCCNC(=N)N)NC(=O)[C@H](Cc2ccc3ccccc3c2)NC(=O)[C@H](Cc2ccccc2)NC(=O)[C@H](Cc2ccccc2)NC(=O)[C@H](CCC(=O)O)NC(=O)CNC(=O)[C@H]([C@@H](C)O)NC(=O)[C@H](CCC(=O)O)NC(=O)[C@H](C)NC(=O)[C@H](CC(N)=O)NC1=O [BH14, cyclo(F-F-Φ-r-p-P-R-R-F-Q-L-N-A-E-T-G-E)] (cyclo(FF[2Nal][dR][dP]PRRFQLNAETGE))
- Decrease of affinity for Keap1 / inhibition potency (Keap1-Nrf2 interaction): ~10 fold
- IC50 (Keap1-Nrf2 interaction): 1.4 ± 0.13 µM

Molecule: CC(C)[C@@H]1NC(=O)[C@H](Cc2ccc(O)cc2)NC(=O)[C@H](CCCNC(=N)N)NC(=O)[C@H](CCCNC(=N)N)NC(=O)[C@@H]2CCCN2C(=O)[C@H]2CCCN2C(=O)[C@@H](CCCNC(=N)N)NC(=O)[C@H](Cc2ccc3ccccc3c2)NC(=O)[C@H](Cc2ccccc2)NC(=O)[C@H](CC(N)=O)NC1=O [BH24, cyclo[F-Φ-r-p-P-R-R-Y-V-N)] (cyclo(YVNF[2Nal][dR][dP]PRR))
- Binding to the Grb2 SH2 domain (in words) (Grb2 SH2 domain; competition with fluorescently labeled reporter ligand): no detectable binding; also recorded: inability to compete
- IC50 (Grb2 SH2 domain; unlabeled peptide, FP-based competition with FAM-labeled ligand, read-out: IC50 Value, binding to Grb2 SH2 domain): > 10 µM
- Phosphorylation of MEK [3]: did not decrease and not

Molecule: CC(C)[C@@H]1NC(=O)[C@H](Cc2ccc(OP(=O)(O)O)cc2)NC(=O)[C@H](CCCNC(=N)N)NC(=O)[C@H](CCCNC(=N)N)NC(=O)[C@@H]2CCCN2C(=O)[C@H]2CCCN2C(=O)[C@@H](C)NC(=O)[C@H](C)NC(=O)[C@H](Cc2ccccc2)NC(=O)[C@H](CC(N)=O)NC1=O [BH25, cyclo[F-A-a-p-P-R-R-pY-V-N)] (cyclo([pY]VNFA[dA][dP]PRR))
- Phosphorylation of MEK [3]: did not decrease and not
- Cellular entry / delivery efficiency (in words) (HeLa cells): poor cellular uptake

Molecule: C[S+]([O-])CCCCN=C=S (centres unmarked) [SFN, Sulforaphane, reference compound]
- HO-1 level (positive control) ([1]; 10 μM): increased

Molecule: cyclo(F-Φ-R-R-R-R-Q)-miniPEG-K(NF) (cyclo(F[2Nal]RRRRQ); not fully specified (residue 7); printed as cyclo(F-Φ-R-R-R-R-Q)-miniPEG-K(NF)) [CPP1, reference compound]
- Efficiency of entry into cytoplasm and nucleus, fold higher than nonaarginine (R9) (mammalian cells): 2-5 fold
- Cellular Uptake (MFINF, %) (HeLa cells; 5 μM NF-labeled peptide, 2 h, relative to CPP1 (100%)): 100%
- Cellular Uptake (MFI^NF, %) of Keap1-Nrf2 inhibitors (HeLa cells; NF-labeled peptide, relative to CPP1 (100%)): 100%

Molecule: nonaarginine (RRRRRRRRR) [Peptide R9]
- Cytosolic delivery efficiency (ratio of cytosolic over extracellular cargo concentrations) [4]: 4.4%

Second part, led by results:

- IC50 (Keap1-Nrf2 interaction): ~0.16 µM
Molecule: CC(C)C[C@@H]1NC(=O)[C@H](CCC(N)=O)NC(=O)[C@H](Cc2ccccc2)NC(=O)[C@H](CCCNC(=N)N)NC(=O)[C@H](CCCNC(=N)N)NC(=O)[C@@H]2CCCN2C(=O)[C@H]2CCCN2C(=O)[C@@H](CCCNC(=N)N)NC(=O)[C@H](Cc2ccc3ccccc3c2)NC(=O)[C@H](Cc2ccccc2)NC(=O)[C@H](Cc2ccccc2)NC(=O)[C@H](CCC(=O)O)NC(=O)CNC(=O)[C@H]([C@@H](C)O)NC(=O)[C@H](CCC(=O)O)NC(=O)[C@@H]2CCCN2C(=O)[C@H](CC(=O)O)NC1=O [BH13, cyclo(F-F-Φ-r-p-P-R-R-F-Q-L-D-P-E-T-G-E)] (cyclo(FF[2Nal][dR][dP]PRRFQLDPETGE))

- IC50 (Keap1-Nrf2 interaction): ~0.16 µM
Molecule: CC(C)C[C@@H]1NC(=O)[C@H](Cc2ccccc2)NC(=O)[C@H](CCCNC(=N)N)NC(=O)[C@H](CCCNC(=N)N)NC(=O)[C@@H]2CCCN2C(=O)[C@H]2CCCN2C(=O)[C@@H](CCCNC(=N)N)NC(=O)[C@H](Cc2ccc3ccccc3c2)NC(=O)[C@H](Cc2ccccc2)NC(=O)[C@H](Cc2ccccc2)NC(=O)[C@H](CCC(=O)O)NC(=O)CNC(=O)[C@H]([C@@H](C)O)NC(=O)[C@H](CCC(=O)O)NC(=O)[C@@H]2CCCN2C(=O)[C@H](CC(=O)O)NC1=O [BH15, cyclo(F-F-Φ-r-p-P-R-R-F-L-D-P-E-T-G-E)]
- HO-1 level, dose response ([1]; varying doses): dose-dependently increased
- Nrf2 levels in cytosolic and nuclear fractions [2]: dose-dependently increased

- Decrease of affinity for Keap1 / inhibition potency (Keap1-Nrf2 interaction): ~10 fold
Molecule: CC(C)C[C@@H]1NC(=O)[C@H](Cc2ccccc2)NC(=O)[C@H](CCCNC(=N)N)NC(=O)[C@H](CCCNC(=N)N)NC(=O)[C@@H]2CCCN2C(=O)[C@H]2CCCN2C(=O)[C@@H](CCCNC(=N)N)NC(=O)[C@H](Cc2ccc3ccccc3c2)NC(=O)[C@H](Cc2ccccc2)NC(=O)[C@H](Cc2ccccc2)NC(=O)[C@H](CCC(=O)O)NC(=O)CNC(=O)[C@H]([C@@H](C)O)NC(=O)[C@H](CCC(=O)O)NC(=O)[C@H](C)NC(=O)[C@H](CC(N)=O)NC1=O [BH16, cyclo(F-F-Φ-r-p-P-R-R-F-L-N-A-E-T-G-E)] (cyclo(FF[2Nal][dR][dP]PRRFLNAETGE))

- Decrease of affinity for Keap1 / inhibition potency (Keap1-Nrf2 interaction): ~10 fold
- IC50 (Keap1-Nrf2 interaction): 1.4 ± 0.15 µM
Molecule: CC(C)C[C@@H]1NC(=O)[C@H](Cc2ccccc2)NC(=O)[C@H](CCCNC(=N)N)NC(=O)[C@H](CCCNC(=N)N)NC(=O)[C@@H]2CCCN2C(=O)[C@H]2CCCN2C(=O)[C@@H](CCCNC(=N)N)NC(=O)[C@H](Cc2ccc3ccccc3c2)NC(=O)[C@H](Cc2ccccc2)NC(=O)[C@H](CCC(=O)O)NC(=O)CNC(=O)[C@H]([C@@H](C)O)NC(=O)[C@H](CCC(=O)O)NC(=O)[C@H](C)NC(=O)[C@H](CC(N)=O)NC1=O [BH18, cyclo(F-Φ-r-p-P-R-R-F-L-N-A-E-T-G-E)] (cyclo(F[2Nal][dR][dP]PRRFLNAETGE))

- Decrease of affinity for Keap1 / inhibition potency (Keap1-Nrf2 interaction): 34 fold
Molecule: C[C@@H]1NC(=O)[C@H](CC(N)=O)NC(=O)[C@H](Cc2ccccc2)NC(=O)[C@H](CCCNC(=N)N)NC(=O)[C@H](CCCNC(=N)N)NC(=O)[C@@H]2CCCN2C(=O)[C@H]2CCCN2C(=O)[C@@H](CCCNC(=N)N)NC(=O)[C@H](Cc2ccc3ccccc3c2)NC(=O)[C@H](Cc2ccccc2)NC(=O)[C@H](CCC(=O)O)NC(=O)CNC(=O)[C@H]([C@@H](C)O)NC(=O)[C@H](CCC(=O)O)NC1=O [BH19, cyclo(F-Φ-r-p-P-R-R-F-N-A-E-T-G-E)] (cyclo(F[2Nal][dR][dP]PRRFNAETGE))
